What all share (test): NCI tumour cell line growth inhibition, 48 h
The subject of assay [1] is 786-0.
Assay [2] concerns A549.
For assay [3], the system named is COLO 205.
Assay [4] relates to HCC 2998.
In assay [5] the test system is HCT-15.
Assay [6] concerns HOP-92.
In assay [7] the test system is Hs-578T.
In assay [8] the test system is M14.
The test system of assay [9] is Malme-3M.
Assay [10] has as its system NCI-H226.
Assay [11] has as its system NCI-H460.
Assay [12] concerns OVCAR-5.
The test system of assay [13] is SF-268.
Assay [14] has as its system SF-295.
In assay [15] the test system is SK-MEL-2.
The test system of assay [16] is SNB-75.
Assay [17] deals with UACC-62.
Assay [18] relates to UO-31.
Assay [19] deals with MCF7.
Assay [20] concerns SR.

“And” between values parts separate entries of the source, which are not always exact repeats. Identical values can stand only once.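 Test compounds were applied to cells in 96-well plates for 48 hours at 5 doses. GI50 marks 50% less growth.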 The source made the active and inactive calls. Rule as the data show it: active = GI50 up to about 1.1 µM and inactive = higher.

Take `O=c1/c(=C/c2ccccn2)sc2nc3cc4c(cc3n12)OCCO4`: the GI50 in assay [1] was > 100 µM (inactive); in assay [2] it was > 100 µM (inactive); in [3], > 100 µM (inactive); in assay [4], > 100 µM (inactive); in assay [5] it was over 100 µM; in [6], > 100 µM (inactive). Further, the GI50 in assay [7], in assay [8], in [9], in assay [10], in assay [11] and in assay [12] was > 100 µM (inactive) throughout. In addition, the GI50 in assay [13] was > 100 µM (inactive); in assay [14], > 100 µM (inactive); in assay [15], > 100 µM (inactive); in assay [16], 91.8 µM (inactive); in [17], > 100 µM (inactive); in [18] it was > 100 µM (inactive).

With `Cc1nn(C(=O)c2ccccc2O)c2c1C(c1ccc(O)cc1O)SC(=N)N2` (stereo not given), the GI50 in assay [1] is 6.85 µM (inactive); in assay [2], 4.76 µM (inactive); in [3], 9.35 µM (inactive); in [5], 3.66 µM; in [6], 3.67 µM (inactive); in assay [7], 1.91 µM (inactive). In addition, the GI50 is 3.61 µM (inactive) in assay [8]; 0.472 µM (active) in assay [19]; > 10 µM (inactive) in [9]; 1.32 µM (inactive) in assay [10]; 4.6 µM (inactive) in assay [11]; 1.04 µM (active) in assay [12]. In addition, the GI50 was 4.75 µM (inactive) in assay [13]; > 10 µM (inactive) in assay [14]; > 10 µM (inactive) in assay [15]; 2.48 µM (inactive) in assay [16]; 6.67 µM (inactive) in [20]; 1.89 µM (inactive) in assay [17]. Also, in assay [18], the GI50 is 2.84 µM (inactive).

Regarding `c1ccc(Cc2cc(-c3ccccc3)[nH]n2)cc1`, the GI50 in assay [1] is 17 µM (inactive); in [2] it was 11.1 µM (inactive); in assay [3], 17.4 µM (inactive); in [5] it was 18.5 µM; in assay [7], 15.3 µM (inactive); in assay [8], 28.5 µM (inactive). Besides, the GI50 in assay [19] was 19.8 µM (inactive); in [10], 12.5 µM (inactive); in [11] it was 17 µM (inactive); in [12], 20.6 µM (inactive); in assay [13], 22.3 µM (inactive); in assay [14], 0.568 µM (active). For the same compound, the GI50 in assay [15] was 16.5 µM (inactive); in [16], < 0.01 µM (active); in assay [20], 18.4 µM (inactive); in assay [17], 14.4 µM (inactive); in assay [18] it was 21.8 µM (inactive).

For `CC1=NN(c2ccccc2)C(=O)C1/N=N/c1ccc([As](=O)(O)O)c(O)c1` (stereo not given), the GI50 in assay [1] was > 100 µM (inactive); in [2] it was > 100 µM (inactive); in [3] it was > 100 µM (inactive); in [5], over 100 µM; in assay [6] it was > 100 µM (inactive); in assay [7], > 100 µM (inactive). Further, the GI50 in [8], in assay [19], in assay [9], in [10], in assay [11] and in assay [12] was > 100 µM (inactive) each time. In addition, the GI50 in assay [13], in [14], in [15], in assay [16], in assay [20] and in assay [17] was > 100 µM (inactive) each time. Moreover, in assay [18], the GI50 was > 100 µM (inactive).

Turning to `CN(C)Cc1cc(C(=O)/C=C/c2ccc(Cl)c(Cl)c2)cc(CN(C)C)c1O`, the GI50 is 1.36 µM (inactive) in [1]; 2.39 µM (inactive) in assay [2]; 1.29 µM (inactive) in assay [3]; 3.4 µM (inactive) in assay [4]; 2.84 µM in [5]; 0.598 µM (active) in assay [6]. Moreover, the GI50 in assay [7] was 3.04 µM (inactive); in [8], 2.02 µM (inactive); in assay [19], 2.48 µM (inactive); in assay [9], 2.88 µM (inactive); in assay [10], 3.77 µM (inactive); in assay [11], 2.12 µM (inactive). For the same compound, the GI50 in assay [12] was 8.83 µM (inactive); in assay [13] it was 3.05 µM (inactive); in [14] it was 3.38 µM (inactive); in assay [16], 2.07 µM (inactive); in [18], 1.83 µM (inactive).

On to `C/C(=N\N=C(/S)N1CC2CCC(CC2)C1)c1cccc[n+]1[O-]`, for which the GI50 in [1] was 6.9 µM (inactive); in [2], 4.98 µM (inactive); in assay [3], 3.66 µM (inactive); in assay [4], 10.8 µM (inactive); in assay [5] it was 1.8 µM; in assay [6], 13.2 µM (inactive). Moreover, the GI50 is 18.4 µM (inactive) in assay [7]; 6.15 µM (inactive) in assay [8]; 5.7 µM (inactive) in [19]; 12.5 µM (inactive) in assay [9]; 3.41 µM (inactive) in assay [10]; 8.09 µM (inactive) in [11]. For the same compound, the GI50 in [12] is 6.11 µM (inactive); in assay [13], 11.8 µM (inactive); in assay [14], 4.43 µM (inactive); in assay [15], 15.3 µM (inactive); in [16], 11.5 µM (inactive); in [17], 7.31 µM (inactive). Further, the GI50 in assay [18] is 3.12 µM (inactive).

On to `O=c1[nH]c(N/N=C\C(O)C(O)C(O)CO)nc2ccccc12` (stereo not given), for which the GI50 in [1] was > 100 µM (inactive); in [2] it was > 100 µM (inactive); in assay [3] it was 83.2 µM (inactive); in assay [5], over 100 µM; in assay [6] it was > 100 µM (inactive); in assay [7], > 100 µM (inactive). In addition, the GI50 in assay [8], in [19], in assay [10], in [11], in [12] and in [13] was > 100 µM (inactive) each time. The GI50 in [14] is > 100 µM (inactive); in [15] it was > 100 µM (inactive); in assay [16], > 100 µM (inactive); in assay [20], > 100 µM (inactive) and 56.2 µM (inactive); in [17] it was > 100 µM (inactive); in assay [18], > 100 µM (inactive).

As to `COc1ccc(-c2nc3ncccn3c2-c2ccc([S+](C)[O-])cc2)cc1` (stereo not given), the GI50 in assay [1] is > 100 µM (inactive); in [2], > 100 µM (inactive); in [3] it was > 100 µM (inactive); in [5] it was over 100 µM; in [6], 61.2 µM (inactive); in [7], > 100 µM (inactive). Moreover, the GI50 is > 100 µM (inactive) in assay [8]; 28.3 µM (inactive) in assay [19]; > 100 µM (inactive) in assay [11]; > 100 µM (inactive) in assay [12]; 89.5 µM (inactive) in assay [13]; > 100 µM (inactive) in assay [14]. For the same compound, the GI50 was > 100 µM (inactive) in [15]; > 100 µM (inactive) in assay [16]; 50.7 µM (inactive) in assay [20]; 54.7 µM (inactive) in assay [17]; > 100 µM (inactive) in [18].

For the compound `Cc1ccc(/C(O)=C/c2nc3ccccc3oc2=O)cc1`, the GI50 in assay [1] was 85.3 µM (inactive); in [2], > 100 µM (inactive); in assay [3] it was 87.7 µM (inactive); in [4], > 100 µM (inactive); in [5] it was 92.7 µM; in assay [7] it was 46.9 µM (inactive). In addition, the GI50 in assay [8] was > 100 µM (inactive); in assay [19], 47.6 µM (inactive); in [9], 34.1 µM (inactive); in assay [10] it was > 100 µM (inactive); in assay [11] it was > 100 µM (inactive); in assay [12], > 100 µM (inactive). In addition, the GI50 in assay [13] is > 100 µM (inactive); in assay [14], 59.6 µM (inactive); in assay [15], > 100 µM (inactive); in assay [16], > 100 µM (inactive); in assay [20] it was 26.9 µM (inactive); in [17] it was 37.7 µM (inactive). Also, in assay [18], the GI50 was 40.1 µM (inactive).

Take `Nc1nc(=O)c2c([nH]1)NCC(CCNc1ccc(C(=O)O)cc1)N2` (stereo not given): the GI50 in [1] is > 100 µM (inactive); in [2] it was > 100 µM (inactive); in [3], > 100 µM (inactive); in [5] it was over 100 µM; in assay [6] it was > 100 µM (inactive); in assay [7], > 100 µM (inactive). The GI50 in assay [8], in assay [19], in assay [9], in assay [10], in assay [11] and in assay [12] was > 100 µM (inactive) each time. In addition, the GI50 in assay [13], in assay [14], in assay [15], in [16], in [20] and in assay [17] was > 100 µM (inactive) in each case. Moreover, the GI50 in assay [18] is > 100 µM (inactive).

As for `COc1cc2c(cc1OC)-c1c(oc3cc(OC4OC(CO)C(O)C(O)C4O)c(OC)cc3c1=O)C(O)O2` (stereo not given), the GI50 in assay [1] was > 100 µM (inactive); in assay [2], > 100 µM (inactive); in assay [3], > 100 µM (inactive); in assay [4], > 100 µM (inactive); in [5], over 100 µM; in [6], > 100 µM (inactive). Besides, the GI50 in assay [7], in [8], in assay [9], in assay [10], in assay [11] and in assay [12] was > 100 µM (inactive) each time. Also, the GI50 in [13], in assay [14], in [15], in assay [16], in assay [17] and in [18] was > 100 µM (inactive) throughout.
